Results from publication PMC10714400, “Antimicrobial Peptide–Peptoid Hybrids with and without Membrane Disruption” (ACS Infectious Diseases, 2023).
In brackets after ≈: the same amount, converted by molar mass. Read-outs that look alike come from different tables or passages of the source. Where a SMILES comes first, the peptide text is derived from it. [ ]: non-standard residue; d: D form. Nleu = CC(C)CNCC(=O)O; Nlys = NCCCCNCC(=O)O

How the values were obtained:
[1] = test system: A. baumannii ATCC19606; settings: for MIC A. baumannii ATCC19606 […] 7.4 / MIC A. baumannii ATCC19606 […] 8.5 / MIC A. baumannii ATCC19606 Full MH 7.4 / MIC A. baumannii ATCC19606 Full MH 8.5: Table S2; for MIC A. baumannii ATCC19606 […] 7.4 / MIC A. baumannii ATCC19606 […] 8.5: […] MH
How it was run: (§1)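 MTT added (20–30 min, room temperature); MIC read by eye as lowest concentration inhibiting visible growth (yellow). Polymyxin B positive control from 16 μg/mL.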

[2] = test system: K. pneumoniae NCTC418; settings: for MIC K. pneumoniae NCTC418 […] 7.4 / MIC K. pneumoniae NCTC418 […] 8.5 / MIC K. pneumoniae NCTC418 Full MH 7.4 / MIC K. pneumoniae NCTC418 Full MH 8.5: Table S2; for MIC K. pneumoniae NCTC418 […] 7.4 / MIC K. pneumoniae NCTC418 […] 8.5: […] MH
How it was run: as §1

[3] = test system: S. aureus COL (MRSA)
How it was run: (§2)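 MICs were determined by broth microdilution in MH medium, with approximately 5 × 10^5 CFU added per well and plates held at 37 °C for about 18 h without shaking.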

[4] = test system: ZEM9A (clinical MDR P. aeruginosa isolate); settings: […] MH at pH 8.5; for MIC P. aeruginosa ZEM9A, […] MH at pH 8.5: CSV; for MIC P. aeruginosa ZEM9A: Table S3
How it was run: as §2

[5] = test system: E. coli W3110; assay: NPN outer membrane permeability assay; assay type: cell-based, Escherichia coli
Procedure: Figure 4 Interactions of peptide–peptoid hybrids with bacterial outer and inner membranes of E. coli. (a, b) NPN outer membrane permeability assay. E. coli W3110 bacteria were treated with increasing compound concentrations in the presence of 10 μM NPN. The fluorescence intensity (λex = 340 nm, λem = 415 nm) was measured within 5 min. Data represent mean ± SD, n = 3. (c, d) DiSC3(5) inner membrane depolarization assay. E. coli W3110 bacteria were treated with increasing compound concentrations in the presence of 2 μM DiSC3(5). The fluorescence intensity (λex = 610 nm, λem = 660 nm) was measured within 5 min after treatment, and the data represent mean ± SD, n = 3.
A single colony of P. aeruginosa PAO1 and E. coli W3110 was grown overnight while being shaken (150 rpm) in LB-broth (5 mL) at 37 °C. 100 μL of the overnight culture was regrown in 10 mL of LB broth with shaking (200 rpm) to the exponential phase (OD600 = 1, corresponding to 10^9 CFU/mL). Bacteria were washed three times with HEPES buffer (5 mM HEPES, 5 mM glucose, pH 7.4), but not diluted yet to their final concentration. 200 μL of peptide samples was added to the first well of 96-well plates (black wells, flat bottom, BRAND GmbH Wertheim, Germany), 100 μL of HEPES/glucose buffer with 10 μM N-phenyl-1-naphthylamine (NPN, purchased from Acros Organics) was added in all the wells, and the compounds were diluted serially by 1/2 (add a control with a final volume of 200 μL with 10 μM NPN in buffer only). Ca. 10 min before the measurement and the final dilution of the bacteria, the plates and the 10 μM NPN in HEPES/glucose buffer (for bacteria dilution) were incubated at 37 °C (prior to the dilution of the bacteria with buffer containing NPN 10 μM). Later, the bacteria were diluted to OD600 = 0.5 with the NPN in HEPES/glucose buffer. 100 μL of the bacterial suspension was added to each well. In this case, the final OD of bacteria was 0.25, the final concentration of the desired compound 64 μg/mL, and NPN 10 μM. The control wells are buffer containing NPN (10 μM, 200 μL) and bacterial suspension containing NPN in HEPES buffer. The plate was measured with a Tecan instrument Infinite M1000 within 5 min. The plate was enabled to shake for 5 s before measurement. The excitation wavelength used was 340 ± 5 nm, and emission wavelength was 415 ± 5 nm. The assay was repeated at least three times.

| SMILES | MIC A. baumannii ATCC19606 […] 7.4 ([1]; pH 7.4) [µg/mL] | MIC A. baumannii ATCC19606 […] 8.5 ([1]; pH 8.5) [µg/mL] | MIC A. baumannii ATCC19606 Full MH 7.4 ([1]; pH 7.4) [µg/mL] | MIC A. baumannii ATCC19606 Full MH 8.5 ([1]; pH 8.5) [µg/mL] | MIC K. pneumoniae NCTC418 […] 7.4 ([2]; pH 7.4) [µg/mL] | MIC K. pneumoniae NCTC418 […] 8.5 ([2]; pH 8.5) [µg/mL] | MIC K. pneumoniae NCTC418 Full MH 7.4 ([2]; pH 7.4) [µg/mL] | MIC K. pneumoniae NCTC418 Full MH 8.5 ([2]; pH 8.5) [µg/mL] | MIC S. aureus COL (MRSA) […] 7.4 ([3]; Table S2, […] MH, pH 7.4) [µg/mL] | MIC S. aureus COL (MRSA) Full MH 7.4 ([3]; Table S2, pH 7.4) [µg/mL] | MIC S. aureus COL (MRSA) Full MH 8.5 ([3]; Table S2, pH 8.5) [µg/mL] | MIC P. aeruginosa ZEM9A, […] MH at pH 8.5 [4] [ug/mL] | MIC P. aeruginosa ZEM9A [4] [µg/mL] | other results |
| --- | --- | --- | --- | --- | --- | --- | --- | --- | --- | --- | --- | --- | --- | --- |
| CC(C)C[C@H](NC(=O)CN(CC(C)C)C(=O)[C@H](CC(C)C)NC(=O)CN(CCCCN)C(=O)[C@H](CC(C)C)NC(=O)CN(CC(C)C)C(=O)[C@H](CCCCN)NC(=O)CN(CC(C)C)C(=O)[C@H](CC(C)C)NC(=O)CN(CCCCN)C(=O)[C@@H](N)CCCCN)C(N)=O [EB9, KkLlKlLkLlL] (H-K[Nlys]L[Nleu]K[Nleu]L[Nlys]L[Nleu]L-NH2) | 16 (≈ 12.1 µM) | 8 (≈ 6.05 µM) | > 32 | > 32 | > 32 | 16 (≈ 12.1 µM) | > 32 | > 32 | 32 (≈ 24.2 µM) | > 32 | > 32 | 2 | 2 (≈ 1.51 µM) | MIC A. baumannii ATCC19606, full MH at pH 7.4 ([1]; ATCC19606, 4 h, pH 7.4): >32 ug/mL; MIC A. baumannii ATCC19606, full MH at pH 8.5 ([1]; ATCC19606, 4 h, pH 8.5): >32 ug/mL; MIC K. pneumoniae NCTC418, full MH at pH 7.4 ([2]; NCTC418, 4 h, pH 7.4): >32 ug/mL; MIC K. pneumoniae NCTC418, full MH at pH 8.5 ([2]; NCTC418, 4 h, pH 8.5): >32 ug/mL; MIC S. aureus COL (MRSA), full MH at pH 7.4 ([3]; COL, 4 h, pH 7.4): >32 ug/mL; MIC S. aureus COL (MRSA), full MH at pH 8.5 ([3]; COL, 4 h, pH 8.5): >32 ug/mL; Outer membrane permeabilization (NPN) ([5]; not told): significant outer membrane permeabilization |
| CC(C)CN(CC(N)=O)C(=O)CN(CC(C)C)C(=O)CN(CC(C)C)C(=O)CN(CCCCN)C(=O)CN(CC(C)C)C(=O)CN(CC(C)C)C(=O)CN(CCCCN)C(=O)CN(CC(C)C)C(=O)CN(CC(C)C)C(=O)CN(CCCCN)C(=O)CNCCCCN [EB11, kkllkllklll] (H-[Nlys][Nlys][Nleu][Nleu][Nlys][Nleu][Nleu][Nlys][Nleu][Nleu][Nleu]-NH2) | 16 (≈ 12.1 µM) | 16 (≈ 12.1 µM) | > 32 | > 32 | 32 (≈ 24.2 µM) | 32 (≈ 24.2 µM) | > 32 | > 32 | > 32 | > 32 | > 32 | 4 | 4 (≈ 3.03 µM) | MIC A. baumannii ATCC19606, […] MH at pH 7.4 ([1]; CSV, […] MH at pH 7.4): 16 ug/mL; MIC A. baumannii ATCC19606, […] MH at pH 8.5 ([1]; CSV, […] MH at pH 8.5): 16 ug/mL; MIC A. baumannii ATCC19606, full MH at pH 7.4 ([1]; CSV, full MH at pH 7.4): >32 ug/mL; MIC A. baumannii ATCC19606, full MH at pH 8.5 ([1]; CSV, full MH at pH 8.5): >32 ug/mL; MIC K. pneumoniae NCTC418, […] MH at pH 7.4 ([2]; CSV, […] MH at pH 7.4): 32 ug/mL; MIC K. pneumoniae NCTC418, […] MH at pH 8.5 ([2]; CSV, […] MH at pH 8.5): 32 ug/mL; MIC K. pneumoniae NCTC418, full MH at pH 7.4 ([2]; CSV, full MH at pH 7.4): >32 ug/mL; MIC K. pneumoniae NCTC418, full MH at pH 8.5 ([2]; CSV, full MH at pH 8.5): >32 ug/mL; MIC S. aureus COL (MRSA), […] MH at pH 7.4 ([3]; CSV, […] MH at pH 7.4): >32 ug/mL; MIC S. aureus COL (MRSA), […] MH at pH 8.5 ([3]; CSV, […] MH at pH 8.5): 6 ug/mL; MIC S. aureus COL (MRSA), full MH at pH 7.4 ([3]; CSV, full MH at pH 7.4): >32 ug/mL; MIC S. aureus COL (MRSA), full MH at pH 8.5 ([3]; CSV, full MH at pH 8.5): >32 ug/mL; MIC S. aureus COL (MRSA) […] 8.5 ([3]; Table S2, […] MH, pH 8.5): 4 to 8 µg/mL; MIC S. aureus COL (MRSA) […] ([3]; diluted MH ([…] MH, pH 8.5) per Table 1 footnote b, 16–20 h at 37 °C): >32 µg/mL; Outer membrane permeabilization (NPN) ([5]; E. coli W3110, 10 μM NPN): significant outer membrane permeabilization |
